One data set concerns leukemia P 388. Kind of data set: Anti-tumor activity on mice against leukemia P 388. The class given is in vivo, CDF1 mice. As to conditions: days 1 and 5. Here is the method:
(§1) To test the anti-tumor activity of the compounds of the present invention, 100,000 cells/mouse of leukemia L 1210 and 1,000,000 cells/mouse of leukemia P 388 were transplanted by intraperitoneal injection to groups of CDF1 mice, respectively. One and 5 days after the transplantation, the test compound was administered by intraperitoneal injection to the mice.
(§2) The anti-tumor activity of the test compound was evaluated by means of T/C %, i.e., 100 times the mean survival period of the groups injected with the test compound divided by the means survival period of the comparison groups which were not injected with the test compound. The value of higher than 120% for L 1210 and higher than 125% for P 388 means that the test compound has a good effect.

The subject of data set [1] is ascites-tumor Sarcoma 180A. The data set is classed as in vivo, ddN mice. The note with it: for Growth Rate T/C (%): daily from one to five days. Here is the method:
To test the anti-tumor activity of the compounds of the present invention, cells of ascites-tumor Sarcoma 180A were transplanted by intraperitoneal injection to groups of ddN mice. From one to five days, the test compound was administered by intraperitoneal injection day after day. The ascites of the resulting mice was sampled to evaluate the anti-tumor activity of the test compound by means of the growth rate of the tumor, T/C % (groups with treatment/groups without treatment). In the table, the designations "-", "+", "++" and "+++" mean 100-66%, 65-41%, 40-11% and 10-0%, of the T/C %, respectively.

Another data set has as its system male mice (ddN strain). Put plainly: Acute toxicity test (intraperitoneal). The note with it: i.p., suspension in 0.3% CMC. The data set is classed as in vivo. Here is the method:
A suspension of the test substance in 0.3% CMC aqueous solution was intraperitoneally administered to the test mice in a dose amount of 0.5 ml per mouse.

A further data set relates to leukemia L 1210. Put plainly: Anti-tumor activity on mice against leukemia L 1210. The class given is in vivo, CDF1 mice. The note with it: days 1 and 5. On the procedure:
as §1, §2

Read-outs that look alike come from different tables or passages of the source.

On to “Cis-uracil(trans-l-1,2-diaminocyclohexane)platinum (II) [Compound No. 15]”, for which the T/C % was found to be 155% in the data set with leukemia P 388 (P 388, 50 mg/kg i.p.); 181% with leukemia P 388 (P 388, 100 mg/kg i.p.); 178% in the data set with leukemia P 388 (P 388, 200 mg/kg i.p.).

Regarding “Cis-uracil(trans-d-1,2-diaminocyclohexane)platinum (II) [Compound No. 14]”, the T/C % is 140% in the data set with leukemia P 388 (P 388, 50 mg/kg i.p.); 142% in the data set on leukemia P 388 (P 388, 100 mg/kg i.p.); 178% with leukemia P 388 (P 388, 200 mg/kg i.p.).

As to `NC1CCCCC1N.O=C1[O][Pt][O]C1=O` (stereo not drawn) [Compound No. 4, Cis-oxalato(cis-1,2-diaminocyclohexane)platinum (II)], the T/C % came to 200% in the data set on leukemia P 388 (P 388, 25 mg/kg i.p.); 0% in the data set on leukemia P 388 (P 388, 50 mg/kg i.p.); 0% in the data set on leukemia P 388 (P 388, 100 mg/kg i.p.). Besides, the “Growth Rate T/C (%)” value was 83% in data set [1] (0.3 mg/kg i.p.), 0% in data set [1] (1 mg/kg i.p.), 0% in data set [1] (3 mg/kg i.p.) and 0% in data set [1] (10 mg/kg i.p.). Moreover, the Evaluation entry in data set [1] (1 mg/kg i.p.), in data set [1] (3 mg/kg i.p.) and in data set [1] (10 mg/kg i.p.) was “+++ (10-0%)” in each case.

One may read the LD50 as the dose expected to kill half of the subjects tested. Low readings indicate greater toxicity, high ones lower toxicity. Take `NC1CCCCC1N.[Cl-].[Cl-].[Pt+2]` (stereo not drawn) [Compound No. 1, Cis-dichloro(cis-1,2-diaminocyclohexane)Platinum (II)]: in the data set with male mice (ddN strain), the LD50 was found to be 11.3 mg/kg. The T/C % with leukemia L 1210 (L 1210, 6.25 mg/kg i.p.) turned out to be 198%; in the data set with leukemia L 1210 (L 1210, 12.5 mg/kg i.p.) it was 211%; in the data set on leukemia L 1210 (L 1210, 25 mg/kg i.p.) it was 164%; in the data set with leukemia L 1210 (L 1210, 100 mg/kg i.p.) it was 0%; in the data set with leukemia L 1210 (L 1210, 200 mg/kg i.p.), 0%; with leukemia L 1210 (L 1210, 400 mg/kg i.p.), 0%. Besides, the values for the Evaluation result in data set [1] (1 mg/kg i.p.), in data set [1] (3 mg/kg i.p.) and in data set [1] (10 mg/kg i.p.) were “+ (65-41%)”, “+++ (10-0%)” and “+++ (10-0%)”, respectively. In addition, the “Growth Rate T/C (%)” value in data set [1] (1 mg/kg i.p.) was determined as 57%; in data set [1] (3 mg/kg i.p.) it was 3%; in data set [1] (10 mg/kg i.p.) it was 0%.

As for `CC(C(=O)[O-])C(=O)[O-].NC1CCCCC1N.[Pt+2]` [Compound No. 12, Cis-methylmalonato(trans-l-1,2-diaminocyclohexane)platinum(II)], the T/C % with leukemia P 388 (P 388, 25 mg/kg i.p.) was 115%; in the data set on leukemia P 388 (P 388, 50 mg/kg i.p.) it was 122%; in the data set on leukemia P 388 (P 388, 100 mg/kg i.p.), 141%.

For “Cis-uracil(cis-1,2-diaminocyclohexane)platinum (II) [Compound No. 13]”, the T/C % stood at 163% in the data set on leukemia P 388 (P 388, 100 mg/kg i.p.); 71% in the data set on leukemia P 388 (P 388, 200 mg/kg i.p.); 0% in the data set on leukemia P 388 (P 388, 400 mg/kg i.p.).

For the compound `NC1CCCCC1N.O=C([O-])CC(=O)[O-].[Pt+2]` (stereo not drawn) [Compound No. 7, Cis-malonato(cis-1,2-diaminocyclohexane)platinum (II)], the T/C % was 126% in the data set with leukemia P 388 (P 388, 12.5 mg/kg i.p.); 142% in the data set with leukemia P 388 (P 388, 25 mg/kg i.p.); 155% with leukemia P 388 (P 388, 50 mg/kg i.p.). Besides, the Evaluation entry in data set [1] (10 mg/kg i.p.) was “+ (65-41%)”; in data set [1] (30 mg/kg i.p.), “+++ (10-0%)”; in data set [1] (100 mg/kg i.p.), “+++ (10-0%)”. Moreover, the “Growth Rate T/C (%)” value was determined as 61% in data set [1] (10 mg/kg i.p.), 0% in data set [1] (30 mg/kg i.p.) and 0% in data set [1] (100 mg/kg i.p.).

For `NC1CCCCC1N.O=C1CC(=O)[O][Pt][O]1` (stereo not drawn) [Compound No. 8, Cis-malonato(trans-d-1,2-diaminocyclohexane)platinum (II)], the T/C % with leukemia P 388 (P 388, 12.5 mg/kg i.p.) is recorded as 121%; in the data set on leukemia P 388 (P 388, 25 mg/kg i.p.), 138%; in the data set with leukemia P 388 (P 388, 50 mg/kg i.p.), 155%. Besides, the Evaluation entry in data set [1] (10 mg/kg i.p.) is reported as “+ (65-41%)”; in data set [1] (30 mg/kg i.p.) it was “+++ (10-0%)”; in data set [1] (100 mg/kg i.p.), “+++ (10-0%)”. In addition, the “Growth Rate T/C (%)” value in data set [1] (10 mg/kg i.p.) was 47%; in data set [1] (30 mg/kg i.p.) it was 1%; in data set [1] (100 mg/kg i.p.), 0%.

The compound `NC1CCCCC1N.[Cl-].[Cl-].[Pt+2]` (stereo not drawn) [Compound No. 3, Cis-dichloro(trans-l-1,2-diaminocyclohexane)platinum (II)] showed an LD50 with male mice (ddN strain) of 14.1 mg/kg. For the same compound, the T/C % in the data set on leukemia L 1210 (L 1210, 6.25 mg/kg i.p.) was 316%; in the data set with leukemia L 1210 (L 1210, 12.5 mg/kg i.p.), 379%; in the data set with leukemia L 1210 (L 1210, 25 mg/kg i.p.), 88%; with leukemia L 1210 (L 1210, 50 mg/kg i.p.) it was 71%; in the data set with leukemia L 1210 (L 1210, 100 mg/kg i.p.), 0%; in the data set with leukemia L 1210 (L 1210, 200 mg/kg i.p.), 0%. Further, the values for the Evaluation result in data set [1] (1 mg/kg i.p.) and in data set [1] (3 mg/kg i.p.) were “++ (40-11%)” and “+++ (10-0%)”, respectively. Moreover, the “Growth Rate T/C (%)” value in data set [1] (1 mg/kg i.p.) was 18%; in data set [1] (3 mg/kg i.p.) it was 2%.

`CC1C(=O)[O][Pt][O]C1=O.NC1CCCCC1N` [Compound No. 11, Cis-methylmalonato(trans-d-1,2-diaminocyclohexane)platinum(II)]: the T/C % in the data set on leukemia P 388 (P 388, 25 mg/kg i.p.) was 121%; in the data set with leukemia P 388 (P 388, 50 mg/kg i.p.), 138%; with leukemia P 388 (P 388, 100 mg/kg i.p.), 154%.

`CC(C(=O)[O-])C(=O)[O-].NC1CCCCC1N.[Pt+2]` [Compound No. 10, Cis-methylmalonato(cis-1,2-diaminocyclohexane)platinum (II)]: the T/C % with leukemia P 388 (P 388, 20 mg/kg i.p.) turned out to be 102%; in the data set on leukemia P 388 (P 388, 40 mg/kg i.p.), 121%; with leukemia P 388 (P 388, 80 mg/kg i.p.), 133%.

Regarding `NC1CCCCC1N.[Cl][Pt][Cl]` (stereo not drawn) [Compound No. 2, Cis-dichloro(trans-d-1,2-diaminocyclohexane)platinum (II)], in the data set with male mice (ddN strain), the LD50 is on record as 22.5 mg/kg. Moreover, the T/C % in the data set with leukemia L 1210 (L 1210, 12.5 mg/kg i.p.) worked out at 291%; in the data set on leukemia L 1210 (L 1210, 25 mg/kg i.p.), 110%; in the data set with leukemia L 1210 (L 1210, 50 mg/kg i.p.), 71%; in the data set with leukemia L 1210 (L 1210, 100 mg/kg i.p.), 71%; with leukemia L 1210 (L 1210, 200 mg/kg i.p.), 0%. In addition, the Evaluation result in data set [1] (1 mg/kg i.p.) is “++ (40-11%)”; in data set [1] (3 mg/kg i.p.) it was “+++ (10-0%)”. In addition, the “Growth Rate T/C (%)” value is given as 8% in data set [1] (1 mg/kg i.p.) and 1% in data set [1] (3 mg/kg i.p.).

Regarding `NC1CCCCC1N.O=C([O-])CC(=O)[O-].[Pt+2]` (stereo not drawn) [Compound No. 9, Cis-malonato(trans-l-1,2-diaminocyclohexane)platinum (II)], the T/C % in the data set on leukemia P 388 (P 388, 75 mg/kg i.p.) is given as 202%; in the data set with leukemia P 388 (P 388, 150 mg/kg i.p.) it was 104%. Further, the “Growth Rate T/C (%)” value is listed as 85% in data set [1] (3 mg/kg i.p.), 17% in data set [1] (10 mg/kg i.p.), 1% in data set [1] (30 mg/kg i.p.) and 4% in data set [1] (100 mg/kg i.p.). Also, the Evaluation result was “++ (40-11%)” in data set [1] (10 mg/kg i.p.), “+ ++” in data set [1] (30 mg/kg i.p.) and “+++ (10-0%)” in data set [1] (100 mg/kg i.p.).

On to `NC1CCCCC1N.O=C1[O][Pt][O]C1=O` (stereo not drawn) [Compound No. 5, Cis-oxalato(trans-d-1,2-diaminocyclohexane)platinum (II)], for which the T/C % in the data set on leukemia P 388 (P 388, 10 mg/kg i.p.) amounted to 174%; in the data set on leukemia P 388 (P 388, 20 mg/kg i.p.), 195%; in the data set with leukemia P 388 (P 388, 40 mg/kg i.p.), 0%. Further, the Evaluation entry in data set [1] (3 mg/kg i.p.) was “+++ (10-0%)”. Besides, the “Growth Rate T/C (%)” value in data set [1] (3 mg/kg i.p.) is recorded as 10%.

`NC1CCCCC1N.[Cl][Pt][Cl]` (stereo not drawn) [cis-dichloro (1,2-DAC) Pt(II), reference compound]: the results for the Evaluation entry in data set [1] (0.3 mg/kg i.p.), in data set [1] (1 mg/kg i.p.) and in data set [1] (3 mg/kg i.p.) were “++ (40-11%)”, “++ (40-11%)” and “+++ (10-0%)”, respectively. Moreover, the results for the “Growth Rate T/C (%)” value in data set [1] (0.3 mg/kg i.p.), in data set [1] (1 mg/kg i.p.) and in data set [1] (3 mg/kg i.p.) were 12%, 19% and 3%, respectively.

In the case of `O=C(O)C(=O)O.[NH-][C@@H]1CCCC[C@H]1[NH-].[Pt+2]` (relative stereo) [Compound No. 6, Cis-oxalato(trans-l-1,2-diaminocyclohexane)platinum (II)], the T/C % in the data set on leukemia P 388 (P 388, 6.25 mg/kg i.p.) is listed as 188%; with leukemia P 388 (P 388, 25 mg/kg i.p.), 61%; in the data set on leukemia P 388 (P 388, 50 mg/kg i.p.), 0%; with leukemia P 388 (P 388, 100 mg/kg i.p.), 0%. In data set [1] (3 mg/kg i.p.), the Evaluation entry is recorded as “+++ (10-0%)”. Besides, the “Growth Rate T/C (%)” value in data set [1] (3 mg/kg i.p.) came to 9%.

The values are drawn from patent publication US4169846A, “Cis-platinum (II) complex of trans-l-1,2-diaminocyclohexane” (priority 1976, dated 1979).
